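Five compound concentrations were applied to cells in 96-well plates for 48 hours; endpoints were derived by simple linear interpolation of the resulting dose-response curve. GI50 marks 50% less growth. TGI is the concentration that stops growth completely.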
Experiments:
Experiment in all cases: inhibition of tumour cell growth, NCI panel, 48 h
SW-620 colon = system: SW-620 colon
DU-145 prostate = system: DU-145 prostate
RXF 393 renal = system: RXF 393 renal
UO-31 renal = system: UO-31 renal
COLO 205 colon = system: COLO 205 colon
HT29 colon = system: HT29 colon
SNB-19 CNS = system: SNB-19 CNS
NCI/ADR-RES ovarian = system: NCI/ADR-RES ovarian
MCF7 breast = system: MCF7 breast
U251 CNS = system: U251 CNS
HL-60(TB) leukemia = system: HL-60(TB) leukemia
OVCAR-4 ovarian = system: OVCAR-4 ovarian
PC-3 prostate = system: PC-3 prostate
SK-OV-3 ovarian = system: SK-OV-3 ovarian
SF-539 CNS = system: SF-539 CNS
OVCAR-8 ovarian = system: OVCAR-8 ovarian
CCRF-CEM leukemia = system: CCRF-CEM leukemia
OVCAR-3 ovarian = system: OVCAR-3 ovarian
HOP-92 NSCLC = system: HOP-92 NSCLC
MOLT-4 leukemia = system: MOLT-4 leukemia
HOP-62 NSCLC = system: HOP-62 NSCLC
NCI-H522 lung = system: NCI-H522 lung
CAKI-1 renal = system: CAKI-1 renal
SK-MEL-2 melanoma = system: SK-MEL-2 melanoma
SK-MEL-28 melanoma = system: SK-MEL-28 melanoma
HCC-2998 colon = system: HCC-2998 colon
HCT-116 colon = system: HCT-116 colon
HS 578T breast = system: HS 578T breast
UACC-257 melanoma = system: UACC-257 melanoma
OVCAR-5 ovarian = system: OVCAR-5 ovarian
SF-295 CNS = system: SF-295 CNS
SF-268 CNS = system: SF-268 CNS
NCI-H23 lung = system: NCI-H23 lung
NCI-H226 lung = system: NCI-H226 lung
MALME-3M melanoma = system: MALME-3M melanoma
T-47D breast = system: T-47D breast
SN12C renal = system: SN12C renal
HCT-15 colon = system: HCT-15 colon
BT-549 breast = system: BT-549 breast
EKVX NSCLC = system: EKVX NSCLC
K-562 leukemia = system: K-562 leukemia
SNB-75 CNS = system: SNB-75 CNS
NCI-H460 lung = system: NCI-H460 lung
UACC-62 melanoma = system: UACC-62 melanoma
MDA-MB-435 = system: MDA-MB-435
MDA-MB-231 breast = system: MDA-MB-231 breast
M14 melanoma = system: M14 melanoma
TK-10 renal = system: TK-10 renal
KM12 colon = system: KM12 colon
786-0 renal = system: 786-0 renal
A498 renal = system: A498 renal
SK-MEL-5 melanoma = system: SK-MEL-5 melanoma
A549 NSCLC = system: A549 NSCLC

## CCCCCCn1c(-c2ccc(C(=O)O/N=C(\N)c3ccc4ccccc4c3)cc2)nc(-c2ccccc2)c1-c1ccccc1
SW-620 colon
  GI50: > 100 µM
  TGI: > 100 µM
DU-145 prostate
  GI50: > 100 µM
  TGI: > 100 µM
RXF 393 renal
  GI50: 5.28 µM
  TGI: 29.7 µM
UO-31 renal
  GI50: 2.17 µM
  TGI: > 100 µM
COLO 205 colon
  GI50: > 100 µM
  TGI: > 100 µM
HT29 colon
  GI50: > 100 µM
  TGI: > 100 µM
SNB-19 CNS
  GI50: 22.3 µM
  TGI: > 100 µM
NCI/ADR-RES ovarian
  GI50: 3.02 µM
  TGI: > 100 µM
MCF7 breast
  GI50: 4.3 µM
  TGI: > 100 µM
U251 CNS
  GI50: 7.64 µM
  TGI: > 100 µM
HL-60(TB) leukemia
  GI50: 1.33 µM
  TGI: > 100 µM
OVCAR-4 ovarian
  GI50: > 100 µM
  TGI: > 100 µM
PC-3 prostate
  GI50: 7.32 µM
  TGI: > 100 µM
SK-OV-3 ovarian
  GI50: 25.9 µM
  TGI: > 90.9 µM
SF-539 CNS
  GI50: 12.5 µM
  TGI: > 100 µM
OVCAR-8 ovarian
  GI50: > 96.3 µM
  TGI: > 100 µM
CCRF-CEM leukemia
  GI50: 1.51 µM
  TGI: > 100 µM
OVCAR-3 ovarian
  GI50: > 100 µM
  TGI: > 100 µM
HOP-92 NSCLC
  GI50: 1.92 µM
  TGI: 7.77 µM
MOLT-4 leukemia
  GI50: > 100 µM
  TGI: > 100 µM
HOP-62 NSCLC
  GI50: 5.77 µM
  TGI: > 100 µM
NCI-H522 lung
  GI50: 24.5 µM
  TGI: > 100 µM
CAKI-1 renal
  GI50: 2.65 µM
  TGI: 55.1 µM
SK-MEL-2 melanoma
  GI50: 25.6 µM
  TGI: > 93.2 µM
SK-MEL-28 melanoma
  GI50: > 100 µM
  TGI: > 100 µM
HCC-2998 colon
  GI50: > 100 µM
  TGI: > 100 µM
HCT-116 colon
  GI50: 4.2 µM
  TGI: > 100 µM
HS 578T breast
  GI50: 2.55 µM
  TGI: > 28.7 µM
UACC-257 melanoma
  GI50: > 100 µM
  TGI: > 100 µM
OVCAR-5 ovarian
  GI50: > 100 µM
  TGI: > 100 µM
SF-295 CNS
  GI50: 11.8 µM
  TGI: > 83.7 µM
SF-268 CNS
  GI50: 6.71 µM
  TGI: > 100 µM
NCI-H23 lung
  GI50: 7.57 µM
  TGI: > 100 µM
NCI-H226 lung
  GI50: 27.3 µM
  TGI: > 100 µM
MALME-3M melanoma
  GI50: > 49.9 µM
  TGI: > 100 µM
T-47D breast
  GI50: 4.99 µM
  TGI: > 100 µM
SN12C renal
  GI50: > 100 µM
  TGI: > 100 µM
HCT-15 colon
  GI50: 7.53 µM
  TGI: > 100 µM
BT-549 breast
  GI50: 8 µM
  TGI: > 100 µM
EKVX NSCLC
  GI50: 6.73 µM
  TGI: > 100 µM
K-562 leukemia
  GI50: 2.42 µM
  TGI: > 100 µM
SNB-75 CNS
  GI50: 2.18 µM
  TGI: 20.1 µM
NCI-H460 lung
  GI50: > 100 µM
  TGI: > 100 µM
UACC-62 melanoma
  GI50: 22.6 µM
  TGI: > 100 µM
MDA-MB-435
  GI50: 7.42 µM
  TGI: > 100 µM
MDA-MB-231 breast
  GI50: 17.8 µM
  TGI: > 100 µM
M14 melanoma
  GI50: > 83.5 µM
  TGI: > 100 µM
TK-10 renal
  GI50: 16 µM
  TGI: > 88.5 µM
KM12 colon
  GI50: > 100 µM
  TGI: > 100 µM
786-0 renal
  GI50: 7.63 µM
  TGI: > 100 µM
A498 renal
  GI50: 2.09 µM
  TGI: > 26 µM
SK-MEL-5 melanoma
  GI50: > 100 µM
  TGI: > 100 µM
A549 NSCLC
  GI50: 2.55 µM
  TGI: > 100 µM

From PubChem BioAssay (NCI)
